From the NIST ThermoML archive (doi:10.1021/je700032n)
Values joined by “and” are separate entries in the source; they are usually repeats but may differ in a detail not shown here. Equal entries are not always repeated.

Conditions: Liquid; for viscosity: Falling or rolling sphere viscometry; for mass density: 101.33 kPa, Vibrating tube method

CCCC[n+]1ccn(C)c1.O=S(=O)([N-]S(=O)(=O)C(F)(F)F)C(F)(F)F
Conditions | viscosity
273.15 K, 100 kPa | 191.3 mPa·s and 191.6 mPa·s
278.15 K, 100 kPa | 140.4 mPa·s
283.15 K, 100 kPa | 106.1 mPa·s
283.15 K, 24300 kPa | 146.8 mPa·s
283.15 K, 49900 kPa | 205.8 mPa·s
283.15 K, 74100 kPa | 280.3 mPa·s
288.15 K, 100 kPa | 81.6 mPa·s
293.15 K, 100 kPa | 63.8 mPa·s and 63.9 mPa·s
298.15 K, 100 kPa | 50.9 mPa·s and 51 mPa·s and 51.1 mPa·s
298.15 K, 24300 kPa | 68.1 mPa·s
298.15 K, 49300 kPa | 90.9 mPa·s
298.15 K, 76900 kPa | 124 mPa·s
298.15 K, 101500 kPa | 161.5 mPa·s
298.15 K, 126400 kPa | 210.3 mPa·s
298.15 K, 150200 kPa | 269.4 mPa·s
303.15 K, 100 kPa | 41.5 mPa·s
313.15 K, 100 kPa | 28.5 mPa·s
323.15 K, 100 kPa | 20.5 mPa·s and 20.6 mPa·s and 20.7 mPa·s
323.15 K, 26400 kPa | 26.9 mPa·s
323.15 K, 35600 kPa | 29.2 mPa·s
323.15 K, 52000 kPa | 34.6 mPa·s
323.15 K, 53900 kPa | 34.8 mPa·s
323.15 K, 69800 kPa | 40.2 mPa·s
323.15 K, 75000 kPa | 41.6 mPa·s
323.15 K, 101600 kPa | 53.9 mPa·s
323.15 K, 103600 kPa | 54.4 mPa·s
323.15 K, 123600 kPa | 64.3 mPa·s
323.15 K, 152800 kPa | 83.6 mPa·s
323.15 K, 200300 kPa | 123.2 mPa·s
323.15 K, 226000 kPa | 151.2 mPa·s
323.15 K, 249600 kPa | 183.2 mPa·s
333.15 K, 100 kPa | 15.4 mPa·s and 15.5 mPa·s
343.15 K, 100 kPa | 12 mPa·s
348.15 K, 100 kPa | 10.6 mPa·s and 10.7 mPa·s
348.15 K, 800 kPa | 10.7 mPa·s
348.15 K, 25700 kPa | 13.4 mPa·s
348.15 K, 50700 kPa | 16.4 mPa·s
348.15 K, 75600 kPa | 19.9 mPa·s
348.15 K, 100900 kPa | 24.2 mPa·s
348.15 K, 125500 kPa | 29 mPa·s
348.15 K, 150600 kPa | 34.6 mPa·s
348.15 K, 175400 kPa | 40.9 mPa·s
348.15 K, 175600 kPa | 41 mPa·s
348.15 K, 200600 kPa | 48.6 mPa·s
348.15 K, 225400 kPa | 57.4 mPa·s
348.15 K, 249700 kPa | 67.3 mPa·s
348.15 K, 274500 kPa | 79 mPa·s
348.15 K, 298900 kPa | 92.6 mPa·s
353.15 K, 100 kPa | 9.53 mPa·s

Conditions | mass density
273.15 K | 1460.67 kg/m3
278.15 K | 1455.84 kg/m3
283.15 K | 1451.04 kg/m3
288.15 K | 1446.23 kg/m3
293.15 K | 1441.43 kg/m3 and 1441.42 kg/m3
298.15 K | 1436.64 kg/m3 and 1436.6 kg/m3
303.15 K | 1431.86 kg/m3
313.15 K | 1422.34 kg/m3
323.15 K | 1412.87 kg/m3 and 1412.85 kg/m3
333.15 K | 1403.48 kg/m3
343.15 K | 1394.15 kg/m3
353.15 K | 1384.88 kg/m3
363.15 K | 1375.67 kg/m3

CCCCCCn1cc[n+](C)c1.F[P-](F)(F)(F)(F)F [1-hexyl-3-methylimidazolium hexafluorophosphate]
Conditions | viscosity
273.15 K, 100 kPa | 3924 mPa·s
278.15 K, 100 kPa | 2428 mPa·s
283.15 K, 100 kPa | 1566 mPa·s and 1565 mPa·s
288.15 K, 100 kPa | 1036 mPa·s and 1035 mPa·s
293.15 K, 100 kPa | 705.1 mPa·s
298.15 K, 100 kPa | 496.4 mPa·s and 496.5 mPa·s
298.15 K, 22000 kPa | 685.3 mPa·s
298.15 K, 42100 kPa | 917.7 mPa·s
298.15 K, 60300 kPa | 1190 mPa·s
298.15 K, 80300 kPa | 1572 mPa·s
298.15 K, 100100 kPa | 2064 mPa·s
303.15 K, 100 kPa | 356.9 mPa·s and 356.8 mPa·s
313.15 K, 100 kPa | 197 mPa·s
313.15 K, 400 kPa | 197.3 mPa·s
313.15 K, 25700 kPa | 276.7 mPa·s
313.15 K, 50800 kPa | 381.8 mPa·s
313.15 K, 76000 kPa | 521.9 mPa·s
313.15 K, 101400 kPa | 708.3 mPa·s
313.15 K, 125200 kPa | 939.3 mPa·s
313.15 K, 150000 kPa | 1254 mPa·s
323.15 K, 100 kPa | 119.2 mPa·s and 117 mPa·s
323.15 K, 7600 kPa | 118.3 mPa·s
323.15 K, 25800 kPa | 161.7 mPa·s
323.15 K, 50600 kPa | 217.1 mPa·s
323.15 K, 76000 kPa | 290.7 mPa·s
323.15 K, 100900 kPa | 384 mPa·s
323.15 K, 125800 kPa | 503.9 mPa·s
323.15 K, 150100 kPa | 655 mPa·s
323.15 K, 174800 kPa | 850.1 mPa·s
333.15 K, 100 kPa | 75.2 mPa·s and 74.4 mPa·s
333.15 K, 40500 kPa | 118.5 mPa·s
333.15 K, 80800 kPa | 182.8 mPa·s
333.15 K, 120800 kPa | 275.7 mPa·s
333.15 K, 160600 kPa | 408.7 mPa·s
333.15 K, 200100 kPa | 598.9 mPa·s
343.15 K, 100 kPa | 49.7 mPa·s
348.15 K, 100 kPa | 41.3 mPa·s
348.15 K, 800 kPa | 41.9 mPa·s
348.15 K, 40700 kPa | 63.7 mPa·s
348.15 K, 80800 kPa | 94.2 mPa·s
348.15 K, 120700 kPa | 136.4 mPa·s
348.15 K, 160600 kPa | 194.8 mPa·s
348.15 K, 200200 kPa | 274.5 mPa·s
348.15 K, 238500 kPa | 378 mPa·s
353.15 K, 100 kPa | 34.8 mPa·s

Conditions | mass density
273.15 K | 1313.39 kg/m3
278.15 K | 1309.33 kg/m3
283.15 K | 1305.29 kg/m3
288.15 K | 1301.26 kg/m3
293.15 K | 1297.24 kg/m3
298.15 K | 1293.22 kg/m3
303.15 K | 1289.21 kg/m3
313.15 K | 1281.17 kg/m3
323.15 K | 1273.44 kg/m3
333.15 K | 1265.69 kg/m3 and 1265.68 kg/m3
343.15 K | 1257.96 kg/m3
353.15 K | 1250.28 kg/m3
363.15 K | 1242.64 kg/m3
